Legend:
HEK293T cells = assay: In vitro Luc-mRNA transfection, luciferase luminescence expression in HEK293T cells; format: cell-based, human; design: unit not given here
Experimental: In Vitro Transfection Activity of DNPs in Human Embrionic Kidney (HEK) 293T Cells: HEK293T cells were seeded into 96-well plates (20,000 cells/well/200 μL) and cultured for 24 h at 37° C. in 5% CO2 complete cell culture media. Screening experiments were performed with nonoptimized DNPs containing naked nucleoside-modified mRNA (Karikó, et al., Immunity 2005, 23, 165-175; Pardi, et al., Methods Mol. Biol. 2013, 969, 29-42), of molar mass 664,341 encoding firefly luciferase (mRNA-Luc). A constant concentration of mRNA-Luc of 125 ng/well was used. The transIT (TransIT-mRNA transfection Kit from Mirus Bio) and MC3-based LNPs (MC3: DLin-MC3-DMA, which is the FDA approved LNP for mRNA delivery) were used as positive controls for cell transfection at a concentration of mRNA-Luc of 125 ng/well, identical to that of the tested DNPs. Subsequently cells were cultured for 24 h, the medium was aspirated under reduced pressure by a glass pipette and cells were lysed with 30 μL/well of cell culture lysis reagent (Promega). The luminescence intensity corresponding to the luciferase protein expressed was characterized and analyzed.
In vitro mRNA Delivery: Human embryonic kidney (HEK) 293T cells (American Type Culture Collection) were cultured in Dulbecco's modified Eagle's medium (DMEM) supplemented with 10% inactivated fetal bovine serum (FBS) (Gemini Bio-Products), 2 mM L-glutamine and 100 U/mL penicillin/streptomycin (Life Technologies) (complete medium). For in vitro screening experiments, HEK293T cells were seeded into 96-well plates (20,000 cells/well/200 μL) and cultured for 24 h in at 37° C. and 5% CO2 in complete media. Cell were transfected with IAJDs with encapsulated naked nucleoside-modified mRNA encoding firefly luciferase (mRNA-Luc) with fixed concentration of mRNA-Luc, 125 ng per well. The transIT (TransIT®-mRNA Transfection Kit, Mirus Bio) was used as a positive control for cell transfection, accordingly per manufacturer protocol and added to cells at the concentration of mRNA-Luc, 125 ng per well, the same as for tested particles. Cells were further cultured for 24 h, then medium was aspirated, and cells were lysed with 30 μL/well of cell culture lysis reagent (Promega). For the characterization of luminescence intensity, 2.5 μL of the lysed cells was mixed with 10 μL of luciferase assay substrate and luminescence was analyzed using a MiniLumat LB 9506 luminometer (Berthold/EG&G; Wallac).
Luminescence characterization for in vitro transfection experiments was performed by determining the luminescence intensity for in vitro Luc-mRNA transfection experiments using a MiniLumat LB 9506 luminometer (Berthold/EG&G; Wallac).
For in vitro Luc-mRNA transfection screening experiments, human embryonic kidney 293 cells (HEK 293) were seeded into 96-well plates (20,000 cells/well/200 μL) and cultured for 18-20 hours at 37° C., 5% CO2 in complete Dulbecco's modified Eagle's medium (DMEM) supplemented with 2 mM L-glutamine (Life Technologies), 100 U/mL penicillin/streptomycin (Invitrogen) and 10% fetal bovine serum (FBS, Gemini Bio-Products). Cells were transfected with DNPs with encapsulated naked nucleoside-modified mRNA encoding firefly luciferase (Luc-mRNA) at constant concentration of Luc-mRNA, 125 ng per well. Luc-mRNA complexed with TransIT (TransIT®-mRNA Transfection Kit, Mirus Bio) or encapsulated in FDA approved MC3-based LNPs were used as positive controls for cell transfection, at the concentration of Luc-mRNA of 125 ng per well, the same as for tested DNPs. After transfection cells were further cultured at 37° C., 5% CO2 for 18-20 hours, then medium was aspirated and cells were lysed with luciferase cell culture lysis reagent (30 μL/well) (Promega, Madison, WI). […]

BALB/c mice = assay: In vivo mRNA delivery in mice with DNPs, whole-body bioluminescence imaging (IVIS); details: for Organs with luminescence / Total flux (p/s): mice; for Total flux (p/s): IVIS imaging 4 h after Luc-mRNA-IAJD injection
Experimental: (§1) The exposure time was 1 min.
Luminescence characterization for in vivo transfection experiments employed bioluminescence imaging with an IVIS Spectrum imaging system (PerkinElmer, Waltham, MA). Mice were anesthetized with 3% of isoflurane (Piramal Healthcare Limited) and intraperitoneally (i.p.) administered with D-luciferin (Regis Technologies) at a dose of 150 mg/kg of body weight. Ten minutes post administration of D-luciferin, mice were placed on the imaging platform while being maintained on isoflurane via a nose cone and imaged using an exposure time of 60 seconds. […] To quantify luminescent flux, an oval ROI was placed over each organ of interest and analyzed.
(§2) Tissue luminescence signal was measured on the IVIS imaging system using an exposure time of 60 seconds using medium binning (binning=8) to ensure that the signal obtained was within operative detection range. […] Bioluminescence imaging was performed as described above.
Luminescence Characterization for In Vivo Transfection Experiments: bioluminescence imaging was performed with an IVIS Spectrum imaging system (PerkinElmer, Waltham, MA).

lung = assay: In vivo mRNA delivery, IVIS imaging of organs: lung; design: species or system mice; key to Organs with luminescence: lung: strong: Strong meant the luminescence intensity in that organ was relatively high, compared to other organs; weak: Weak meant the luminescence intensity in that organ was relatively low, compared to other organs; details: for Organs with luminescence: lung (weak/strong): Table 14; for Organs with luminescence: lung: Table 17, mice, IVIS, 4-6 h after injection, intensity relative to other organs
Experimental: as §1, §2
Tissue luminescence signal was measured on the IVIS imaging system using a certain exposure time (60, 30 or 15 seconds) and medium binning (binning=8) to ensure that the signal obtained was within operative detection range.

[1] = HEK293T cells, Luc-mRNA 125 ng/well, n=3
[2] = Table 13, IVIS imaging 5 h after injection
[3] = Table 13, IVIS imaging 6 h after injection

Q: For “3,5-Bis(dodecyloxy)benzyl 3-(4-methylpiperazin-1-yl)propanoate [IAJD 84]”, which Luminescence (HEK293T cells; Acetate buffer 10 mM pH 4.0, CIAJD 4 mg/mL, CLuc-mRNA 0.05 mg/mL, HEK293T, 125 ng/well) is on record?
A: 3,876

Q: What about the Luminescence (HEK293T cells; Acetate buffer 10 mM pH 5.2, CIAJD 4 mg/mL, CLuc-mRNA 0.10 mg/mL, HEK293T, 125 ng/well) of the same compound?
A: 18,268

Q: What about the Luminescence (HEK293T cells; Citrate buffer 10 mM pH 3.0, CIAJD 4 mg/mL, CLuc-mRNA 0.05 mg/mL, HEK293T, 125 ng/well) of the same compound?
A: 819

Q: What about the Organs with luminescence (BALB/c mice; 4 h from injection, CIAJD 4.0 mg/mL, CLuc-mRNA 0.1 mg/mL, acetate buffer pH 5.2) of the same compound?
A: Lung, spleen

Q: Which results are given for `CCCCCCCCCCCCOc1cc(COC(=O)CCCN2CCCCC2)cc(OCCCCCCCCCCCC)c1` [IAJD 65, 3,5-Bis(dodecyloxy)benzyl 4-(piperidin-1-yl)butanoate]?
A: Luminescence (HEK293T cells; [1]): 18; Total flux (p/s) (BALB/c mice; Table 13): 0 p/s; Total flux (p/s) (BALB/c mice; Table 14): 0 p/s

Q: What does the source list for `CCCCCCCCCCCCOc1ccc(COC(=O)CCCN2CCN(C)CC2)cc1OCCCCCCCCCCCC` [IAJD 78, 3,4-Bis(dodecyloxy)benzyl 4-(4-methylpiperazin-1-yl)butanoate]?
A: Luminescence (HEK293T cells; [1]): 8,688; Organs with luminescence (BALB/c mice; [2]): Lung, spleen; Organs with luminescence: lung (weak/strong) (lung; imaging 5 h after injection): Lung (strong),

Q: What does the source list for `CCCCCCCCCCCCCCCCCCOc1cc(COC(=O)CCCN2CCN(C)CC2)cc(OCCCCCCCCCCC)c1` [IAJD 81, 3-(Octadecyloxy)-5-(undecyloxy)benzyl 4-(4-methylpiperazin-1-yl)butanoate]?
A: Luminescence (HEK293T cells; [1]): 206,161; In vivo activity (total flux, p/s) (BALB/c mice; Table 19, nonsymmetric IAJDs): 2.32 × 10^7 p/s; In vivo activity (total flux, p/s) (BALB/c mice; Table 20, nonsymmetric IAJDs and MC3-Luc-mRNA): 2.32 × 10^7 p/s; Organs with luminescence: lung (weak/strong) (lung; imaging 6 h after injection): Lung (weak),; Organs with luminescence: lung (lung): Lung (weak),

Q: For `CCCCCCCCCCCCOCC(COCCCCCCCCCCCC)(COCCCCCCCCCCCC)COC(=O)CCCN1CCN(C)CC1` [IAJD 82, 3-(Dodecyloxy)-2,2-bis((dodecyloxy)methyl)propyl 4-(4-methylpiperazin-1-yl)butanoate], which Luminescence (HEK293T cells; [1]) is on record?
A: 17

Q: And the Organs with luminescence (BALB/c mice; [2])?
A: spleen

Q: Which Luminescence (HEK293T cells; [1]) does the source give for `CCCCCCCCCCCCCCCCOc1cc(COC(=O)CCCN2CCN(C)CC2)cc(OCCCCCCCCCCC)c1` [IAJD 86, 3-(Hexadecyloxy)-5-(undecyloxy)benzyl 4-(4-methylpiperazin-1-yl)butanoate] here?
A: 47,066

Q: What about the “In vivo activity (total flux, p/s)” value (BALB/c mice; Table 19, nonsymmetric IAJDs) of the same compound?
A: 4.73 × 10^7 p/s

Q: And the “Organs with luminescence: lung (weak/strong)” value (shortened to “Organs … (weak/strong)”) (lung; imaging 5 h after injection)?
A: Lung (weak),

Q: And the “Organs with luminescence: lung” value (lung)?
A: Lung (weak),

Q: Which results are given for `CCCCC(CC)COC(=O)CCCCOc1cc(COC(=O)CCCN2CCN(CCO)CC2)cc(OCCCCC(=O)OCC(CC)CCCC)c1` (stereo not shown) [IAJD 95]?
A: Luminescence (HEK293T cells; [1]): 153,564; Organs with luminescence: lung (weak/strong) (lung; imaging 6 h after injection): Lung (weak),

Q: `CCCCC(CC)COc1cc(COC(=O)CCCN2CCN(C)CC2)cc(OCC(CC)CCCC)c1OCC(CC)CCCC` (stereo not shown) [IAJD 96, 3,4,5-Tris((2-ethylhexyl)oxy)benzyl 4-(4-methylpiperazin-1-yl)butanoate] was tested. Which Luminescence (HEK293T cells; [1]) did it give?
A: 22,799

Q: What about the “Organs … (weak/strong)” value (lung; imaging 5 h after injection) of the same compound?
A: Lung (weak),

Q: Which results are given for `CCCCC(CC)COc1cc(COC(=O)CCCN2CCN(CCO)CC2)cc(OCC(CC)CCCC)c1OCC(CC)CCCC` (stereo not shown) [IAJD 97, 3,4,5-Tris((2-ethylhexyl)oxy)benzyl 4-(4-(2-hydroxyethyl)piperazin-1-yl)butanoate]?
A: Luminescence (HEK293T cells; [1]): 342,016; Organs with luminescence: lung (weak/strong) (lung; imaging 5 h after injection): Lung (weak),

Q: How did the Luminescence (HEK293T cells; [1]) turn out when `CCCCCCCCCCCCCCCCCCOc1cc(COC(=O)CCCN2CCN(C)CC2)cc(OCCCCCCCCCCCCCCCCCC)c1` [IAJD 98, 3,5-Bis(octadecyloxy)benzyl 4-(4-methylpiperazin-1-yl)butanoate] was run?
A: 22,209

Q: What about the “Organs … (weak/strong)” value (lung; imaging 6 h after injection) of the same compound?
A: Lung (weak),

Q: How did the Luminescence (HEK293T cells; [1]) turn out when `CCCCCCCCCCCCCCCCCCOc1cc(COC(=O)CCCN2CCN(CCO)CC2)cc(OCCCCCCCCCCCCCCCCCC)c1` [IAJD 99, 3,5-Bis(octadecyloxy)benzyl 4-(4-(2-hydroxyethyl)piperazin-1-yl)butanoate] was run?
A: 87,433

Q: What about the “Organs … (weak/strong)” value (lung; imaging 6 h after injection) of the same compound?
A: Lung (weak),

Q: How did the Luminescence (HEK293T cells; [1]) turn out when `CCCCC(CC)COc1ccc(COC(=O)CCCN2CCN(C)CC2)cc1OCC(CC)CCCC` (stereo not shown) [IAJD 103, 3,4-Bis((2-ethylhexyl)oxy)benzyl 4-(4-methylpiperazin-1-yl)butanoate] was run?
A: 19

Q: What about the Organs with luminescence (BALB/c mice; [3]) of the same compound?
A: Lung, spleen

Q: What about the “Organs … (weak/strong)” value (lung; imaging 6 h after injection) of the same compound?
A: Lung (strong),

Q: Which Luminescence (HEK293T cells; [1]) does the source give for `CCCCCCCCCCCCCCOc1cc(COC(=O)CCCN2CCN(C)CC2)cc(OCCCCCCCCCCC)c1` [IAJD 105, 3-(Tetradecyloxy)-5-(undecyloxy)benzyl 4-(4-methylpiperazin-1-yl)butanoate] here?
A: 85

Q: And the “In vivo activity (total flux, p/s)” value (BALB/c mice; Table 19, nonsymmetric IAJDs)?
A: 4.74 × 10^7 p/s

Q: And the “Organs … (weak/strong)” value (lung; imaging 6 h after injection)?
A: Lung (weak),

Q: And the “Organs with luminescence: lung” value (lung)?
A: Lung (weak),

Q: `CCCCCCCCCCCCCCCCOc1cc(COC(=O)CCCN2CCN(C)CC2)cc(OCCCCCCCCCCCC)c1` [IAJD 106, 3-(Dodecyloxy)-5-(hexadecyloxy)benzyl 4-(4-methylpiperazin-1-yl)butanoate] was tested. Which Luminescence (HEK293T cells; [1]) did it give?
A: 309

Q: What about the “In vivo activity (total flux, p/s)” value (BALB/c mice; Table 19, nonsymmetric IAJDs) of the same compound?
A: 3.48 × 10^7 p/s

Q: And the “Organs … (weak/strong)” value (lung; imaging 6 h after injection)?
A: Lung (weak),

Q: What about the “Organs with luminescence: lung” value (lung) of the same compound?
A: Lung (weak),

Q: For `CCCCCCCCCCCCCCCCCCOc1cc(COC(=O)CCCN2CCN(C)CC2)cc(OCCCCCCCCCCCC)c1` [IAJD 107, 3-(Dodecyloxy)-5-(octadecyloxy)benzyl 4-(4-methylpiperazin-1-yl)butanoate], which Luminescence (HEK293T cells; [1]) is on record?
A: 93,745

Q: What about the “In vivo activity (total flux, p/s)” value (BALB/c mice; Table 19, nonsymmetric IAJDs) of the same compound?
A: 2.19 × 10^7 p/s

Q: What about the “Organs … (weak/strong)” value (lung; imaging 6 h after injection) of the same compound?
A: Lung (weak),

Q: And the “Organs with luminescence: lung” value (lung)?
A: Lung (weak),

Q: Which Luminescence (HEK293T cells; [1]) does the source give for `CCCCCCCCCCCCCCOc1cc(CNC(=O)CCCN2CCN(C)CC2)cc(OCCCCCCCCCCCCCC)c1` [IAJD 108, N-(3,5-bis(tetradecyloxy)benzyl)-4-(4-methylpiperazin-1-yl)butanamide] here?
A: 136,424

Q: And the Organs with luminescence (BALB/c mice; [3])?
A: Lung, spleen

Q: And the “Organs … (weak/strong)” value (lung; imaging 6 h after injection)?
A: Lung (strong),

Source: patent publication US20240252677A1, “ONE-COMPONENT DELIVERY SYSTEM FOR NUCLEIC ACIDS” (The Trustees of the University of Pennsylvania, priority 2021, published 2024)
